Article PMC9658817, “Design, Synthesis, and Mechanistic Study of 2-Pyridone-Bearing Phenylalanine Derivatives as Novel HIV Capsid Modulators” (Molecules, 2022)
≈ marks a conversion by molar mass, not a printed value. Read-outs that look alike come from different tables or passages of the source.

Legend:
HIV-2 ROD = assay: Anti-HIV-2 activity in MT-4 cells (MTT assay); assay type: cell-based; settings: Human immunodeficiency virus 2, MT4, 120 h, read-out: EC50 HIV-2 ROD
Protocol: (§1) The antiviral activities and cytotoxicities of the target compounds were tested using MT-4 cells infected by HIV-1 IIIB or HIV-2 ROD. […] PF74 was utilized as the control drug in this assay.

MT-4 cells = assay: Cytotoxicity in mock-infected MT-4 cells (MTT assay); assay type: cell-based; settings: uninfected (mock-infected) MT-4 cells, viability reduced by 50%
Protocol: as §1

HIV-1 IIIB = assay: Anti-HIV-1 activity in MT-4 cells (MTT assay); assay type: cell-based; settings: Human immunodeficiency virus 1, IIIB, MT4, 120 h, read-out: EC50 HIV-1 IIIB
Protocol: as §1

[1] = Cytotoxicity in mock-infected MT-4 cells (MTT assay); assay type: cell-based; settings: human, mock-infected (uninfected) MT-4 cells, uninfected (mock-infected) MT-4 cells, viability reduced by 50%
Protocol: as §1

[2] = Water solubility assay in phosphate buffer (HPLC); assay type: physicochemical; settings: for solubility: aqueous buffer, thermodynamic from solid, HPLC; for water solubility compared with PF74: in words, relative to PF74
Protocol: To test the changes in water solubility when two more amides or its mimics were introduced to the target compounds, which may lower the solubility of the target compounds, we performed water solubility assays (Table 2). […] Therefore, we cannot calculate its water solubility. It was illustrated that the solubility of compounds varied greatly under different pH. […] We weighed about 1mg of the compound, dissolved it with 1ml of methanol, and diluted it in gradient (twice each time) to obtain 10 concentrations. The peak area of the compound was tested by HPLC, and the peak area- concentration standard curve was drawn. In addition, about 1 mg, 0.6 mg and 0.3 mg of the compound were weighed and dissolved in 1 mL of pH 2, pH 7 and pH 7.4 phosphate buffer to obtain the saturated solution of the compound. HPLC was used to test the peak area under different pH, and the water solubility of the compound was obtained through the standard curve.

HIV = system: HIV; set-up: method as in PMID 32612233; settings: MT-4 cells; read-out: EC50 antiviral activity; cited from earlier work
[3] = MT-4 cells, 50% protection against HIV-induced cytopathic effect, MTT, five days after infection
[4] = phosphate buffer pH 2, saturated solution, read-out: Solubility pH 2
[5] = phosphate buffer pH 7, saturated solution, read-out: Solubility pH 7
[6] = phosphate buffer pH 7.4, saturated solution, read-out: Solubility pH 7.4

Structure (SMILES)	EC50 (HIV-2 ROD; [3])	CC50 (MT-4 cells)	EC50 (HIV-1 IIIB; [3])	further results
COc1ccc(N(C)C(=O)[C@H](Cc2ccccc2)NC(=O)Cn2ccc(NC(=O)c3ccc(Cl)cc3)cc2=O)cc1 [TD-1e, (S)-4-chloro-N-(1-(2-((1-((4-methoxyphenyl)(methyl)amino)-1-oxo-3-phenylpropan-2-yl)amino)-2-oxoethyl)-2-oxo-1,2-dihydropyridin-4-yl)benzamide]	> 25.5 µM	25.5 ± 2.9 µM	> 25.5 µM	
Cc1[nH]c2ccccc2c1CC(=O)NC(Cc1ccccc1)C(=O)N(C)c1ccccc1 (stereo not drawn) [PF74, reference compound]				EC50 (HIV-2 ROD): 5.76 ± 2.14 µM; CC50 at 5 days [1]: > 294 µM; EC50 (HIV-1 IIIB): 1.08 ± 0.24 µM; solubility [2, 4]: < 1.12 µg/mL; solubility [2, 5]: 1.44 ± 0.1 µg/mL (≈ 3.38 µM); solubility [2, 6]: 1.91 ± 0.56 µg/mL (≈ 4.49 µM)
CC(C)(C#Cc1ccc(-c2ccc(Cl)c3c(NS(C)(=O)=O)nn(CC(F)(F)F)c23)c([C@H](Cc2cc(F)cc(F)c2)NC(=O)Cn2nc(C(F)(F)F)c3c2C(F)(F)[C@@H]2C[C@H]32)n1)S(C)(=O)=O [GS-6207]				EC50 (HIV): 0.000105 µM
COc1ccc(N(C)C(=O)[C@H](Cc2ccccc2)NC(=O)Cn2ccc(NC(=O)c3ccc(Br)cc3)cc2=O)cc1 [TD-1f, (S)-4-bromo-N-(1-(2-((1-((4-methoxyphenyl)(methyl)amino)-1-oxo-3-phenylpropan-2-yl)amino)-2-oxoethyl)-2-oxo-1,2-dihydropyridin-4-yl)benzamide]	> 23.5 µM	23.5 ± 2.79 µM	> 23.5 µM	
COc1ccc(N(C)C(=O)[C@H](Cc2ccccc2)NC(=O)Cn2ccc(NC(=O)c3ccc(F)cc3)cc2=O)cc1 [TD-1b, (S)-4-fluoro-N-(1-(2-((1-((4-methoxyphenyl)(methyl)amino)-1-oxo-3-phenylpropan-2-yl)amino)-2-oxoethyl)-2-oxo-1,2-dihydropyridin-4-yl)benzamide]	16.2 ± 17.2 µM	34.8 ± 5.75 µM	> 34.8 µM	
COc1ccc(N(C)C(=O)[C@H](Cc2ccccc2)NC(=O)Cn2ccc(NC(=O)c3cccc(F)c3)cc2=O)cc1 [TD-1c, (S)-3-fluoro-N-(1-(2-((1-((4-methoxyphenyl)(methyl)amino)-1-oxo-3-phenylpropan-2-yl)amino)-2-oxoethyl)-2-oxo-1,2-dihydropyridin-4-yl)benzamide]	6.59 ± 1.63 µM	61.6 ± 8.44 µM	18.9 ± 2.66 µM	
COc1ccc(N(C)C(=O)[C@H](Cc2ccccc2)NC(=O)Cn2ccc(NC(=O)c3ccc(C)cc3)cc2=O)cc1 [TD-1g, (S)-N-(1-(2-((1-((4-methoxyphenyl)(methyl)amino)-1-oxo-3-phenylpropan-2-yl)amino)-2-oxoethyl)-2-oxo-1,2-dihydropyridin-4-yl)-4-methylbenzamide]	20.5 ± 8.49 µM	58.3 ± 4.85 µM	25.6 ± 7.51 µM	
COc1ccc(N(C)C(=O)[C@H](Cc2ccccc2)NC(=O)Cn2ccc(NC(=O)c3ccc([N+](=O)[O-])cc3)cc2=O)cc1 [TD-1l, (S)-N-(1-(2-((1-((4-methoxyphenyl)(methyl)amino)-1-oxo-3-phenylpropan-2-yl)amino)-2-oxoethyl)-2-oxo-1,2-dihydropyridin-4-yl)-4-nitrobenzamide]	> 31.9 µM	31.9 ± 1.73 µM	> 31.9 µM	
COc1ccc(N(C)C(=O)[C@H](Cc2ccccc2)NC(=O)Cn2ccc(NC(=O)c3ccc4ccccc4c3)cc2=O)cc1 [TD-1k, (S)-N-(1-(2-((1-((4-methoxyphenyl)(methyl)amino)-1-oxo-3-phenylpropan-2-yl)amino)-2-oxoethyl)-2-oxo-1,2-dihydropyridin-4-yl)-2-naphthamide]	> 27.6 µM	27.6 ± 3.18 µM	> 27.6 µM	
COc1ccc(N(C)C(=O)[C@H](Cc2ccccc2)NC(=O)Cn2ccc(NC(=O)c3ccc(C#N)cc3)cc2=O)cc1 [TD-1j, (S)-4-cyano-N-(1-(2-((1-((4-methoxyphenyl)(methyl)amino)-1-oxo-3-phenylpropan-2-yl)amino)-2-oxoethyl)-2-oxo-1,2-dihydropyridin-4-yl)benzamide]	17.8 ± 2.79 µM	137 ± 22.5 µM	16.8 ± 0.78 µM	
COc1ccc(N(C)C(=O)[C@H](Cc2ccccc2)NC(=O)Cn2ccc(NC(=O)c3ccccc3)cc2=O)cc1 [TD-1a, (S)-N-(1-(2-((1-((4-methoxyphenyl)(methyl)amino)-1-oxo-3-phenylpropan-2-yl)amino)-2-oxoethyl)-2-oxo-1,2-dihydropyridin-4-yl)benzamide]	4.86 ± 1.71 µM	86.5 ± 29.2 µM	16.8 ± 0.91 µM	solubility [2, 4]: 2.69 ± 0.52 µg/mL (≈ 4.99 µM); solubility [2, 5]: 5.07 ± 2.6 µg/mL (≈ 9.41 µM); solubility [2, 6]: 8.66 ± 0.41 µg/mL (≈ 16.1 µM); water solubility compared with PF74 [2]: moderately increased
COC(=O)c1ccc(C(=O)Nc2ccn(CC(=O)N[C@@H](Cc3ccccc3)C(=O)N(C)c3ccc(OC)cc3)c(=O)c2)cc1 [TD-1i, methyl (S)-4-((1-(2-((1-((4-methoxyphenyl)(methyl)amino)-1-oxo-3-phenylpropan-2-yl)amino)-2-oxoethyl)-2-oxo-1,2-dihydropyridin-4-yl)carbamoyl)benzoate]	15.2 ± 0.55 µM	96.2 ± 19.8 µM	19.1 ± 5.08 µM	
COc1ccc(N(C)C(=O)[C@H](Cc2ccccc2)NC(=O)Cn2ccc(NC(=O)c3ccccc3F)cc2=O)cc1 [TD-1d, (S)-2-fluoro-N-(1-(2-((1-((4-methoxyphenyl)(methyl)amino)-1-oxo-3-phenylpropan-2-yl)amino)-2-oxoethyl)-2-oxo-1,2-dihydropyridin-4-yl)benzamide]	7.92 ± 0.83 µM	81.4 ± 22.7 µM	17.9 ± 2.68 µM	
COc1ccc(N(C)C(=O)[C@H](Cc2cc(F)cc(F)c2)NC(=O)Cn2ccc(N)cc2=O)cc1 [FTC-2, (S)-2-(2-(4-amino-2-oxopyridin-1(2H)-yl)acetamido)-3-(3,5-difluorophenyl)-N-(4-methoxyphenyl)-N-methylpropanamide]	15.6 ± 1.06 µM	> 266 µM	5.36 ± 0.98 µM	solubility [2, 4]: 367 ± 58.4 µg/mL (≈ 779 µM); solubility [2, 5]: 261 ± 130 µg/mL (≈ 555 µM); solubility [2, 6]: 437 ± 51.9 µg/mL (≈ 928 µM); water solubility compared with PF74 [2]: improved by a factor of hundreds
COc1ccc(C(=O)Nc2ccn(CC(=O)N[C@@H](Cc3ccccc3)C(=O)N(C)c3ccc(OC)cc3)c(=O)c2)cc1 [TD-1h, (S)-4-methoxy-N-(1-(2-((1-((4-methoxyphenyl)(methyl)amino)-1-oxo-3-phenylpropan-2-yl)amino)-2-oxoethyl)-2-oxo-1,2-dihydropyridin-4-yl)benzamide]	10.7 ± 3.66 µM	53.1 ± 5.12 µM	29.6 ± 4.34 µM	
COc1ccc(N(C)C(=O)[C@H](Cc2ccccc2)NC(=O)Cn2ccc(N)cc2=O)cc1 [TC-2, (S)-2-(2-(4-amino-2-oxopyridin-1(2H)-yl)acetamido)-N-(4-methoxyphenyl)-N-methyl-3-phenylpropanamide]	19.7 ± 6.42 µM	261 ± 33.1 µM	29.1 ± 4.23 µM	
COc1ccc(N(C)C(=O)[C@H](Cc2ccccc2)NC(=O)Cn2ccc(NC(=O)c3ccc(N)cc3)cc2=O)cc1 [TD-1m, (S)-4-amino-N-(1-(2-((1-((4-methoxyphenyl)(methyl)amino)-1-oxo-3-phenylpropan-2-yl)amino)-2-oxoethyl)-2-oxo-1,2-dihydropyridin-4-yl)benzamide]	17.1 ± 2.49 µM	189 ± 2.19 µM	> 189 µM	
